Holding throughout (assay type): functional
The nature of test [1]: NIH-3T3 fibroblast cytotoxicity, dose response, cytotoxicity control, cell-based, fluorescence, Alamar Blue, secondary assay (AID 2327). (The colour change of resazurin is a common sign of viable cells or microbes.)
The target of test [2] is T1, Sentrin-specific protease 7 (Homo sapiens, UniProt Q9BQF6).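 Note: Luminescence-based dose-response confirmation of ultra-high-throughput screening hits, measuring inhibition of SENP7.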
T1 sequence (Q9BQF6 whole entry): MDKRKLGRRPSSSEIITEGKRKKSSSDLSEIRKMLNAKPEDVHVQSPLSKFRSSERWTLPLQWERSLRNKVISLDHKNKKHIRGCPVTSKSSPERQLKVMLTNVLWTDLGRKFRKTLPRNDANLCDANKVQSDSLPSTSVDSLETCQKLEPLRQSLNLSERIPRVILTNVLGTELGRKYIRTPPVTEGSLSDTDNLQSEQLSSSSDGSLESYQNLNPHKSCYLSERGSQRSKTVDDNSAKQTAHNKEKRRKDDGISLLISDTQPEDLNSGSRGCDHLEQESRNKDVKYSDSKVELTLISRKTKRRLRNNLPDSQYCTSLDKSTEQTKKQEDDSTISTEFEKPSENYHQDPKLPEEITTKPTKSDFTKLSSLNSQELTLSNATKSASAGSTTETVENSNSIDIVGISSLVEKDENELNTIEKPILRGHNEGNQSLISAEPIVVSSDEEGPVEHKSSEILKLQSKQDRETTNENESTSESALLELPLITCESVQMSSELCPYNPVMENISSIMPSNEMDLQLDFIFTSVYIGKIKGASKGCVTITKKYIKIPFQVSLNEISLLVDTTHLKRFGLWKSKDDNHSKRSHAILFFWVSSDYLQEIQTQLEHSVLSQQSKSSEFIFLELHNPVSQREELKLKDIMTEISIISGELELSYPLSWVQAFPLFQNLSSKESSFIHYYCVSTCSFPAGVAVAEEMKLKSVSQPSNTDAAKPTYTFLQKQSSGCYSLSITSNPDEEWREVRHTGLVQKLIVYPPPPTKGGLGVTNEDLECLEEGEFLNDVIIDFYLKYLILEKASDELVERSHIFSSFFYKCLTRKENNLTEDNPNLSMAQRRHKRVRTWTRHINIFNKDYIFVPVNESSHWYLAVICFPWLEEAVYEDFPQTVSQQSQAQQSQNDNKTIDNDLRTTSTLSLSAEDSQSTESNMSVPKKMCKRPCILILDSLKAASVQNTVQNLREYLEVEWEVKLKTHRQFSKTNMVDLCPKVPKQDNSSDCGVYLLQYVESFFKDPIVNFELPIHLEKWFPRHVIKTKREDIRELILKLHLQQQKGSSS

Test [3] concerns the target T2, Apoptotic protease-activating factor 1 (Homo sapiens, UniProt O14727).
T2 sequence (O14727 whole entry): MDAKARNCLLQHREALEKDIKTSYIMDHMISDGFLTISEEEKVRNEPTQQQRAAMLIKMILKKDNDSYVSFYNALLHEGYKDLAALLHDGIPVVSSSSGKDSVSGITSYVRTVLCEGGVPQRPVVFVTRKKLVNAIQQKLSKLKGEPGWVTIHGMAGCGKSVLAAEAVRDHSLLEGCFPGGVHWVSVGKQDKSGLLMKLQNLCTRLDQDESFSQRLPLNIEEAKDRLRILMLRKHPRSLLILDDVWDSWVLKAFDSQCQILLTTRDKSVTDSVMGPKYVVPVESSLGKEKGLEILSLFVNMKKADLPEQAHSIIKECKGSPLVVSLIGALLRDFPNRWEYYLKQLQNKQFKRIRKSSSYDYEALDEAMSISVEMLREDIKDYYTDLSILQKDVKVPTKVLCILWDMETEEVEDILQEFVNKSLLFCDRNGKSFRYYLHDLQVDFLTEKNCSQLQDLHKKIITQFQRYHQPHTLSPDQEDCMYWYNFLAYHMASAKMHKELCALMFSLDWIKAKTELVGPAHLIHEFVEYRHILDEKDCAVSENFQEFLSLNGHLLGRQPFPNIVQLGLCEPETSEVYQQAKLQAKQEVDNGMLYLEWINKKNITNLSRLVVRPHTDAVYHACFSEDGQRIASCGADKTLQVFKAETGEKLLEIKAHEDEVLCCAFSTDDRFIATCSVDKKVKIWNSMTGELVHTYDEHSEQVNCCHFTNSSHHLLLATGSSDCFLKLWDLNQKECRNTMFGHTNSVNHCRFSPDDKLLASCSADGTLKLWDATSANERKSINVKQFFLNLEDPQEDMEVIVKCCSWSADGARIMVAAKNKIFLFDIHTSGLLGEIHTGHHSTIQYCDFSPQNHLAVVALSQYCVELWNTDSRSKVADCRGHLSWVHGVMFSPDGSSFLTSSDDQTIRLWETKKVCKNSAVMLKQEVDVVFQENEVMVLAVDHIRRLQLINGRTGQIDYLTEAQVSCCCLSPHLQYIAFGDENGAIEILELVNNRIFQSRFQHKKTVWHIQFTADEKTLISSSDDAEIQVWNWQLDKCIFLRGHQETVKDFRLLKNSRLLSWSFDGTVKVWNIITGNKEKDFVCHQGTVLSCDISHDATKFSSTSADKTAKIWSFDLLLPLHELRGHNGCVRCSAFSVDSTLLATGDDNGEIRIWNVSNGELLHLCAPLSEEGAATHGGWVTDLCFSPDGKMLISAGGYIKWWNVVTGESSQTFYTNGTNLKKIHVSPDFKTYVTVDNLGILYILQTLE

Test [4] deals with Dual specificity protein kinase CLK2 (Homo sapiens, UniProt P49760).
In test [5] the target is Mitogen-activated protein kinase kinase kinase kinase 2 (Homo sapiens, UniProt Q12851).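 Note: measured as one member of a kinome-wide kinase panel, with MAP4K2 as the panel entry.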
Test [6] concerns the target Tyrosine-protein kinase JAK3 (Homo sapiens, UniProt P52333).
Test [7] has as its target Fibroblast growth factor receptor 1 (Homo sapiens, UniProt P11362).
The target in test [8] is Mitogen-activated protein kinase 9 (Homo sapiens, UniProt P45984).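 Note: value from a kinome panel profiling assay, MAPK9 panel entry.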
In test [9] the target is Glycogen synthase kinase-3 beta (Homo sapiens, UniProt P49841).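 Note: value comes from a broad kinome profiling panel, with GSK3B as the panel member.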
For test [10], the target named is Cyclin-dependent kinase 7 (Homo sapiens, UniProt P50613).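 Note: value comes from a kinome-wide kinase profiling panel in which CDK7 is one member.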
Test [11] has as its target Serine/threonine-protein kinase PAK 4 (Homo sapiens, UniProt O96013).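 Note: value obtained within a kinome profiling panel in which PAK4 was one of the panel members.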
For test [12], the target named is Dual specificity mitogen-activated protein kinase kinase 2 (Homo sapiens, UniProt P36507). The experiment in a line: Navigating the Kinome. Panel member name: MAP2K2.
Test [13] addresses Tyrosine-protein kinase BTK (Homo sapiens, UniProt Q06187).
The target of test [14] is BDNF/NT-3 growth factors receptor (Homo sapiens, UniProt Q16620).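 Note: NTRK2 measured as one member of a broad kinome-wide kinase profiling panel.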

This is an account of results in ChEMBL document CHEMBL1201862, “PubChem BioAssay data set” (2004).

Activity calls are given as the source filed them. Where only a bound is given, the exact number is not on record here.

Broadly, the EC50 is the concentration giving half of the maximal effect. A word on the IC50: it is the concentration that gives 50% inhibition. Usually Ki stands for the equilibrium dissociation constant of an inhibitor or competing ligand from its target.
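Throughout, for EC50: NIH-3T3 mouse fibroblasts cultured with fluconazole at 8 µg/mL.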

Sequence of Tyrosine-protein kinase JAK3 (P52333 whole entry): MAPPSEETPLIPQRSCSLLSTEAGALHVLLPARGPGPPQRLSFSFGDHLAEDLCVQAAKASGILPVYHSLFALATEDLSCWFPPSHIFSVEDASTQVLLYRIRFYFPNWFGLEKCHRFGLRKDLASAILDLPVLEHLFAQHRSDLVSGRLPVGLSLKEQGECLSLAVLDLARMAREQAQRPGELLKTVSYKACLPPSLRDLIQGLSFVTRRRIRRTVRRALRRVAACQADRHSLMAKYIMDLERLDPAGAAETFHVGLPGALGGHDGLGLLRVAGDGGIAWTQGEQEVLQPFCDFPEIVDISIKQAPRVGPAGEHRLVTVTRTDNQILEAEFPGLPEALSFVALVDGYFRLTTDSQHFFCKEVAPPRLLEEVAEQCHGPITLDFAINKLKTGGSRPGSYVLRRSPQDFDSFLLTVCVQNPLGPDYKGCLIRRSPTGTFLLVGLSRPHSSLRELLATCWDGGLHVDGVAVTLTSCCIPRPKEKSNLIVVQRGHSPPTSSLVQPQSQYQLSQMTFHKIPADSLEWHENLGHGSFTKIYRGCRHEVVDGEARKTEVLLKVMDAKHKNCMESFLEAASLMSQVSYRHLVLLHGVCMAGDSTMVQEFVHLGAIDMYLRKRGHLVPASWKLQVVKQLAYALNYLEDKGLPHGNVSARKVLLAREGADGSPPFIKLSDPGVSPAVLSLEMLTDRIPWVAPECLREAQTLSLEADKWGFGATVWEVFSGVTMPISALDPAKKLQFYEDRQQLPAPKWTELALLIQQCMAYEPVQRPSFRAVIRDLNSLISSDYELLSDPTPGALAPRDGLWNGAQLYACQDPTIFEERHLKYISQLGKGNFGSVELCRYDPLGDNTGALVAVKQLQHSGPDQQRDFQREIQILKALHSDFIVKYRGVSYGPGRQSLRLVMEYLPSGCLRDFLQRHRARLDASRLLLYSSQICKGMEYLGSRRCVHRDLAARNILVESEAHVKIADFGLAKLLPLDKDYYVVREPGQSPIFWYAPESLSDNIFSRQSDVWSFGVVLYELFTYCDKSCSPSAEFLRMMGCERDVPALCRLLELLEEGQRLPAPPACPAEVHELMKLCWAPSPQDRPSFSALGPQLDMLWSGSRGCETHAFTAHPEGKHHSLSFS
Sequence of Tyrosine-protein kinase BTK (Q06187 whole entry): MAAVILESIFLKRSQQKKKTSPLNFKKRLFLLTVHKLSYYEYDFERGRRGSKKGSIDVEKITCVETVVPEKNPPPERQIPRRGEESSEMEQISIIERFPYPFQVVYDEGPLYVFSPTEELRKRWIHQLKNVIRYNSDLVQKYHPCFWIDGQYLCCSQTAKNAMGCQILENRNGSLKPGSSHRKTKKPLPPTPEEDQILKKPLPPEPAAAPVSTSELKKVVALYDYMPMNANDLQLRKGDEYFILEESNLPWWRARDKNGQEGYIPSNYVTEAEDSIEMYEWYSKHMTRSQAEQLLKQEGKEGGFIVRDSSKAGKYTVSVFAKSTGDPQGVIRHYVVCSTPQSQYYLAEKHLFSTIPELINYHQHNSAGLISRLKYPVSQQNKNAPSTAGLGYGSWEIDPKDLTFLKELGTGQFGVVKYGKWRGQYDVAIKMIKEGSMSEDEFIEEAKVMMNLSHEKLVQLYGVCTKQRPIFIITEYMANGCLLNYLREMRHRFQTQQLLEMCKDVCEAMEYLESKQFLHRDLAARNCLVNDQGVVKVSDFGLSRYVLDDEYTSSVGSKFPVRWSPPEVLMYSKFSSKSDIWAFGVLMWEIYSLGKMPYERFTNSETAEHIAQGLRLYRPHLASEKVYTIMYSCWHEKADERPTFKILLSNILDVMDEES
Sequence of Dual specificity mitogen-activated protein kinase kinase 2 (P36507 whole entry): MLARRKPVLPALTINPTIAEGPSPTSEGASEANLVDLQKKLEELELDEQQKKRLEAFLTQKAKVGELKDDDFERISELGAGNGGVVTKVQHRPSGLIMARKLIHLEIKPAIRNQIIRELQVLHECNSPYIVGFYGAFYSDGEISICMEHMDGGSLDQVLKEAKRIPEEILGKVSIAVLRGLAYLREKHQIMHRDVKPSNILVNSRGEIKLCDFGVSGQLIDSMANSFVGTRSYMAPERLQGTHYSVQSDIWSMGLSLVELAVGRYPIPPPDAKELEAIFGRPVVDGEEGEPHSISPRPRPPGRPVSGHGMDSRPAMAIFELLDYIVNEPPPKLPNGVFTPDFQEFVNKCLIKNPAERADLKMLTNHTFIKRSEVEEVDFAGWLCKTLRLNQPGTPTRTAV
Sequence of Mitogen-activated protein kinase kinase kinase kinase 2 (Q12851 whole entry): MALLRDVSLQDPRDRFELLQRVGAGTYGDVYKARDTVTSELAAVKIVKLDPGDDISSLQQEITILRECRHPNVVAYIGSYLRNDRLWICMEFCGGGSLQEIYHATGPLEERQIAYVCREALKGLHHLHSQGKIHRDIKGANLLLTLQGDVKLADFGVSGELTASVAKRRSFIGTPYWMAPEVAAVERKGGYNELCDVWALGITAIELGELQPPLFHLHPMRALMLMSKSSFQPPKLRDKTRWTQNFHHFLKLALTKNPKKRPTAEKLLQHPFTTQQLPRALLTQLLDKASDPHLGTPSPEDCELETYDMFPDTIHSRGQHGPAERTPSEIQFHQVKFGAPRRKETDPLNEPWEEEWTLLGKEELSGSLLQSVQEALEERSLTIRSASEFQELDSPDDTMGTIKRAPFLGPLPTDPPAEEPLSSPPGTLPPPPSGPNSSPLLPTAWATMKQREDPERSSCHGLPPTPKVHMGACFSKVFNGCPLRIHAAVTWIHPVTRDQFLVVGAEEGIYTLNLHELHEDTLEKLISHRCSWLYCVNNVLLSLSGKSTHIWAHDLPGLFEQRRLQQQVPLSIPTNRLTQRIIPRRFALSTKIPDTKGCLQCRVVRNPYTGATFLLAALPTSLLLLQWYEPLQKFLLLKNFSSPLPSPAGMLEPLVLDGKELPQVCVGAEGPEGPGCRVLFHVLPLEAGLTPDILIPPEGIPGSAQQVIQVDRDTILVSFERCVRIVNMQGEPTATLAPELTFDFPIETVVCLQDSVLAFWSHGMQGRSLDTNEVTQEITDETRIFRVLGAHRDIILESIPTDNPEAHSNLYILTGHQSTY
Sequence of BDNF/NT-3 growth factors receptor (Q16620 whole entry): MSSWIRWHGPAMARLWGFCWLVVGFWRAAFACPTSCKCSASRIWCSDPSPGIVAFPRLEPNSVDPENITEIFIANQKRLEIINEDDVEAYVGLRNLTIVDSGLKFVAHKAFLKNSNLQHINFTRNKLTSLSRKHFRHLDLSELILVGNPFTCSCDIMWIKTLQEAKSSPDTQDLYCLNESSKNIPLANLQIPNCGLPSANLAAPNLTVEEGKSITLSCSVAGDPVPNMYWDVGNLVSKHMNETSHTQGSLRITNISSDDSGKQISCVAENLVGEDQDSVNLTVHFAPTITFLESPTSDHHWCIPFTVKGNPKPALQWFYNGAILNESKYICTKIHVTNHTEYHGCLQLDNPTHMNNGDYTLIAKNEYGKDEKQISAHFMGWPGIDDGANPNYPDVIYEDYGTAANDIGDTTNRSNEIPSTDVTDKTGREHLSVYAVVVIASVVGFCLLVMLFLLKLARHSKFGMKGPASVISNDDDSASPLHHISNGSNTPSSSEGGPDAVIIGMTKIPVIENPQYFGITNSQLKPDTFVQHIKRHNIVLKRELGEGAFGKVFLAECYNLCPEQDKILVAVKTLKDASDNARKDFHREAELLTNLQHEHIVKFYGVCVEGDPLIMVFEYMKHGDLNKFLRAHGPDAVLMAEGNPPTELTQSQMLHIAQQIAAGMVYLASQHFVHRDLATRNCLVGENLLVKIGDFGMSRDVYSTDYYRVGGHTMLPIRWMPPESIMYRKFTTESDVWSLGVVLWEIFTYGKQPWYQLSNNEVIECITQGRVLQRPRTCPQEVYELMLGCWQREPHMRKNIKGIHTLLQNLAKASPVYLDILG
Sequence of Cyclin-dependent kinase 7 (P50613 whole entry): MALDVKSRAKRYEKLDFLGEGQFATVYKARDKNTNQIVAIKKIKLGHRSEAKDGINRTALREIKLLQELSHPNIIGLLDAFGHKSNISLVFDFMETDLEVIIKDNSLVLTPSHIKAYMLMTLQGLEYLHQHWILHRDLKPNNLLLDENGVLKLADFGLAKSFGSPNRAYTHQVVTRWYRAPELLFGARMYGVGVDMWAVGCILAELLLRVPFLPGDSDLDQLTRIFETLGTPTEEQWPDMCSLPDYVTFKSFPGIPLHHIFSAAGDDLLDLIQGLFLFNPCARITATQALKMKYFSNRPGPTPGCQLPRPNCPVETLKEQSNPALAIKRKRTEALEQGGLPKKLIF
Sequence of Glycogen synthase kinase-3 beta (P49841 whole entry): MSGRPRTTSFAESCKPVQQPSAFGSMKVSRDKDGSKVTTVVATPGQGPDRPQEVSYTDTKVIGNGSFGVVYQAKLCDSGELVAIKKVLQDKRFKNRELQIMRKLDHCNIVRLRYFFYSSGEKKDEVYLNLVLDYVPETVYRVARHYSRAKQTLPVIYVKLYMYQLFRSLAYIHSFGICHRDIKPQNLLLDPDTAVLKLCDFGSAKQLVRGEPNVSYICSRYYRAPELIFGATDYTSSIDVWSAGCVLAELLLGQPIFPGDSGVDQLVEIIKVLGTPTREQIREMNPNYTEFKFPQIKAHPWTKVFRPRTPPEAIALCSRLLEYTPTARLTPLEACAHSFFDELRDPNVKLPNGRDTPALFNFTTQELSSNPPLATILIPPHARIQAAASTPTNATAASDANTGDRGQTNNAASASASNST
Sequence of Mitogen-activated protein kinase 9 (P45984 whole entry): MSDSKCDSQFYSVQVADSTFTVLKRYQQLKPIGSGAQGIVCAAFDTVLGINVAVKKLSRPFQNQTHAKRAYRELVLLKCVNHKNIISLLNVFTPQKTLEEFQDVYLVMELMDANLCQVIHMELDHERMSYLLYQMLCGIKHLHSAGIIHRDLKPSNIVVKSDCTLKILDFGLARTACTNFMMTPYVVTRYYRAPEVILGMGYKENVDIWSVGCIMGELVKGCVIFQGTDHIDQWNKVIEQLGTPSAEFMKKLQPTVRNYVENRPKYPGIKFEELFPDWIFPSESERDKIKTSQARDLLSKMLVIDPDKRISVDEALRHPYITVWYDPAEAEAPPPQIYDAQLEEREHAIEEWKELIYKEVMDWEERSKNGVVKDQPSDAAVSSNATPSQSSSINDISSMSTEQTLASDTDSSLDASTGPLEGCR

Consider `CNC[C@H](Cc1ccccc1)NC[C@@H](Cc1cccc2ccccc12)NCCc1ccc(C)cc1`, for which, in [1], the EC50 is > 160 µM (inconclusive).
For `Nc1nnc2c(n1)CCCC2`, the IC50 in test [2] was 10.2 µM (active); in test [3], 7.19 µM (active).
`O=C(Cc1ccccc1Cl)NC1(O)C(=O)c2ccccc2C1=O`: in test [3], the IC50 is 12 µM (active).
For `O=C(N/N=C/c1c(O)ccc2ccccc12)c1[nH]ncc1Br`, the IC50 in test [2] was 7.19 µM (active).
`Nc1c(-c2ccc(NC(=O)Nc3cccc(C(F)(F)F)c3)cc2)cnc2c(-c3ccc4c(c3)OCO4)cnn12`: the Ki is > 3.98 µM (inactive) in [4]; > 2.51 µM (inactive) in test [5]; > 5.01 µM (inactive) in test [6]; > 3.98 µM (inactive) in test [7]; > 3.98 µM (inactive) in test [8]; > 3.98 µM (inactive) in test [9]. For the same molecule, the Ki was > 3.98 µM (inactive) in test [10]; > 5.01 µM (inactive) in [11]; > 3.98 µM (inactive) in test [12]; 0.316 µM (active) in [13]; 0.0126 µM (active) in test [14].
In the case of `O=C(Nc1cc(-c2c[nH]c3ncccc23)cc(Cl)n1)c1ccccc1`, the Ki in test [4] was > 3.16 µM (inactive); in [5], > 2.51 µM (inactive); in test [6], > 5.01 µM (inactive); in test [7], > 3.98 µM (inactive); in test [8], > 3.98 µM (inactive); in [9], > 3.98 µM (inactive). The Ki in [10] was > 3.98 µM (inactive); in [11], > 5.01 µM (inactive); in test [12], > 3.98 µM (inactive); in test [13], > 6.31 µM (inactive); in [14], > 3.98 µM (inactive).
`CCN1C(=Cc2sc3ccccc3[n+]2C)C=Cc2cccc(C)c21`: the EC50 in test [1] was 15.5 µM (inconclusive).
